According to patent publication US8030443B2, “Squamous cell carcinoma antigen-derived peptide binding to HLA-A24 molecule” (Kurume University, priority 2005, dated 2011):

Tested on: peptide-specific IgG in sera of cancer patients and healthy donors
Test: Measurement of anti-peptide IgG in plasma by LUMINEX multiplexed flow cytometric assay
Assay type: binding, human
Protocol: The levels of anti-peptide immunoglobulin G (IgG) were measured by the LUMINEX™ system (multiplexed flow cytometric assay) as previously reported (Komatsu N, Shichijo S, Nakagawa M, Itoh K. New multiplexed flow cytometric assay to measure anti-peptide antibody: a novel tool for monitoring immune responses to peptides used for immunization. Scand J Clin Lab Invest 2004; 64:1-11). In brief, plasma was incubated with 25 μl of peptide-coupled color-coded beads for 2 hr at room temperature on a plate shaker. After incubation, the mixture was washed with a vacuum manifold apparatus and incubated with 100 μl of biotinylated goat anti-human IgG (γ chain-specific)(BA-3080, Vector Laboratories, Burlingame, Calif., USA) for 1 h at room temperature. The plate was then washed, followed by the addition of 100 μl of streptavidin-PE (S-866, Molecular Probes, Eugene, Oreg., USA) into wells, and was incubated for 30 min at room temperature on a plate shaker. The bound beads were washed three times followed by the addition of 100 μl of Tween-PBS into each well. Fifty μl of sample was detected using the LUMINEX™ system (multiplexed flow cytometric assay). To confirm the specificity of IgG to a SCCA peptide, sample plasma was cultured in plates coated with a corresponding SCCA peptide, or with an irrelevant SCCA peptide. After the operation was repeated three times, the levels of the corresponding SCCA peptide-specific IgG in the resulting supernatant were determined by the LUMINEX™ system (multiplexed flow cytometric assay).
These 9 SCCA-derived peptides were screened based on their ability to be recognized by IgG in cancer patients. Peptide-specific IgG was measured by a multiplexed flow cytometric assay (LUMINEX™ (multiplexed flow cytometric assay)). The plasma samples were derived from 35 uterine cervical SCC patients, 10 breast adenocarcinoma patients, 10 pancreatic adenocarcinoma patients, 10 gastric adenocarcinoma, and 6 colon adenocarcinoma patients. The level of fluorescence intensity was judged to be significant when exceeded 100 at an 1/100 dilution.

EYLDAIKKF (SCCA 118-126 peptide) [SCCA-derived peptide, position 118-126]
Total: healthy donors with significant peptide-reactive IgG / donors tested (10 healthy donors, significant when fluorescence intensity exceeded 100 at 1/100 dilution): 2/10
Total: cancer patients with significant peptide-reactive IgG / patients tested (71 cancer patients, significant when fluorescence intensity exceeded 100 at 1/100 dilution): 7/71
Fluorescence intesity (serum of Breast Ca. patient #36, 1:100 dilution): 5
Fluorescence intesity (serum of Breast Ca. patient #37, 1:100 dilution): 23
Fluorescence intesity (serum of Breast Ca. patient #38, 1:100 dilution): 1
Fluorescence intesity (serum of Breast Ca. patient #39, 1:100 dilution): 1
Fluorescence intesity (serum of Breast Ca. patient #40, 1:100 dilution): 0
Fluorescence intesity (serum of Breast Ca. patient #41, 1:100 dilution): 123
Fluorescence intesity (serum of Breast Ca. patient #42, 1:100 dilution): 14
Fluorescence intesity (serum of Breast Ca. patient #43, 1:100 dilution): 7
Fluorescence intesity (serum of Breast Ca. patient #44, 1:100 dilution): 0
Fluorescence intesity (serum of Breast Ca. patient #45, 1:100 dilution): 18
Fluorescence intesity (serum of Colon Ca. patient #66, 1:100 dilution): 2
Fluorescence intesity (serum of Colon Ca. patient #67, 1:100 dilution): 0
Fluorescence intesity (serum of Colon Ca. patient #68, 1:100 dilution): 0
Fluorescence intesity (serum of Colon Ca. patient #69, 1:100 dilution): 0
Fluorescence intesity (serum of Colon Ca. patient #70, 1:100 dilution): 0
Fluorescence intesity (serum of Colon Ca. patient #71, 1:100 dilution): 17
Fluorescence intesity (serum of Gastric Ca. patient #56, 1:100 dilution): 0
Fluorescence intesity (serum of Gastric Ca. patient #57, 1:100 dilution): 0
Fluorescence intesity (serum of Gastric Ca. patient #58, 1:100 dilution): 0
Fluorescence intesity (serum of Gastric Ca. patient #59, 1:100 dilution): 21
Fluorescence intesity (serum of Gastric Ca. patient #60, 1:100 dilution): 0
Fluorescence intesity (serum of Gastric Ca. patient #61, 1:100 dilution): 5
Fluorescence intesity (serum of Gastric Ca. patient #62, 1:100 dilution): 0
Fluorescence intesity (serum of Gastric Ca. patient #63, 1:100 dilution): 0
Fluorescence intesity (serum of Gastric Ca. patient #64, 1:100 dilution): 2
Fluorescence intesity (serum of Gastric Ca. patient #65, 1:100 dilution): 0
Fluorescence intesity (serum of Healthy Donor #1, 1:100 dilution): 0
Fluorescence intesity (serum of Healthy Donor #2, 1:100 dilution): 47
Fluorescence intesity (serum of Healthy Donor #3, 1:100 dilution): 0
Fluorescence intesity (serum of Healthy Donor #4, 1:100 dilution): 0
Fluorescence intesity (serum of Healthy Donor #5, 1:100 dilution): 0
Fluorescence intesity (serum of Healthy Donor #6, 1:100 dilution): 0
Fluorescence intesity (serum of Healthy Donor #7, 1:100 dilution): 0
Fluorescence intesity (serum of Healthy Donor #8, 1:100 dilution): 324
Fluorescence intesity (serum of Healthy Donor #9, 1:100 dilution): 37
Fluorescence intesity (serum of Healthy Donor #10, 1:100 dilution): 0
Fluorescence intesity (serum of Pancreas Ca. patient #46, 1:100 dilution): 0
Fluorescence intesity (serum of Pancreas Ca. patient #47, 1:100 dilution): 0
Fluorescence intesity (serum of Pancreas Ca. patient #48, 1:100 dilution): 404
Fluorescence intesity (serum of Pancreas Ca. patient #49, 1:100 dilution): 0
Fluorescence intesity (serum of Pancreas Ca. patient #50, 1:100 dilution): 0
Fluorescence intesity (serum of Pancreas Ca. patient #51, 1:100 dilution): 0
Fluorescence intesity (serum of Pancreas Ca. patient #52, 1:100 dilution): 79
Fluorescence intesity (serum of Pancreas Ca. patient #53, 1:100 dilution): 0
Fluorescence intesity (serum of Pancreas Ca. patient #54, 1:100 dilution): 0
Fluorescence intesity (serum of Pancreas Ca. patient #55, 1:100 dilution): 0
Fluorescence intesity (serum of Uterine cervical Ca. patient #1, 1:100 dilution): 0
Fluorescence intesity (serum of Uterine cervical Ca. patient #2, 1:100 dilution): 0
Fluorescence intesity (serum of Uterine cervical Ca. patient #3, 1:100 dilution): 0
Fluorescence intesity (serum of Uterine cervical Ca. patient #4, 1:100 dilution): 0
Fluorescence intesity (serum of Uterine cervical Ca. patient #5, 1:100 dilution): 0
Fluorescence intesity (serum of Uterine cervical Ca. patient #6, 1:100 dilution): 507
Fluorescence intesity (serum of Uterine cervical Ca. patient #7, 1:100 dilution): 11
Fluorescence intesity (serum of Uterine cervical Ca. patient #8, 1:100 dilution): 24
Fluorescence intesity (serum of Uterine cervical Ca. patient #9, 1:100 dilution): 82
Fluorescence intesity (serum of Uterine cervical Ca. patient #10, 1:100 dilution): 13
Fluorescence intesity (serum of Uterine cervical Ca. patient #11, 1:100 dilution): 20
Fluorescence intesity (serum of Uterine cervical Ca. patient #12, 1:100 dilution): 37
Fluorescence intesity (serum of Uterine cervical Ca. patient #13, 1:100 dilution): 20
Fluorescence intesity (serum of Uterine cervical Ca. patient #14, 1:100 dilution): 16
Fluorescence intesity (serum of Uterine cervical Ca. patient #15, 1:100 dilution): 87
Fluorescence intesity (serum of Uterine cervical Ca. patient #16, 1:100 dilution): 179
Fluorescence intesity (serum of Uterine cervical Ca. patient #17, 1:100 dilution): 45
Fluorescence intesity (serum of Uterine cervical Ca. patient #18, 1:100 dilution): 42
Fluorescence intesity (serum of Uterine cervical Ca. patient #19, 1:100 dilution): 41
Fluorescence intesity (serum of Uterine cervical Ca. patient #20, 1:100 dilution): 100
Fluorescence intesity (serum of Uterine cervical Ca. patient #21, 1:100 dilution): 20
Fluorescence intesity (serum of Uterine cervical Ca. patient #22, 1:100 dilution): 20
Fluorescence intesity (serum of Uterine cervical Ca. patient #23, 1:100 dilution): 44
Fluorescence intesity (serum of Uterine cervical Ca. patient #24, 1:100 dilution): 1169
Fluorescence intesity (serum of Uterine cervical Ca. patient #25, 1:100 dilution): 15
Fluorescence intesity (serum of Uterine cervical Ca. patient #26, 1:100 dilution): 106
Fluorescence intesity (serum of Uterine cervical Ca. patient #27, 1:100 dilution): 28
Fluorescence intesity (serum of Uterine cervical Ca. patient #28, 1:100 dilution): 71
Fluorescence intesity (serum of Uterine cervical Ca. patient #29, 1:100 dilution): 13
Fluorescence intesity (serum of Uterine cervical Ca. patient #30, 1:100 dilution): 25
Fluorescence intesity (serum of Uterine cervical Ca. patient #31, 1:100 dilution): 101
Fluorescence intesity (serum of Uterine cervical Ca. patient #32, 1:100 dilution): 16
Fluorescence intesity (serum of Uterine cervical Ca. patient #33, 1:100 dilution): 114
Fluorescence intesity (serum of Uterine cervical Ca. patient #34, 1:100 dilution): 16
Fluorescence intesity (serum of Uterine cervical Ca. patient #35, 1:100 dilution): 19
